{"source": "patent US20240336896A1", "about": "“MODIFIED PRODUCER CELLS FOR EXTRACELLULAR VESICLE PRODUCTION” (LONZA SALES AG, priority 2021, published 2024)", "key": {"HiBit reporter cell line [1]": {"test_system": "HiBit reporter cell line", "assay": "viability and viable cell density (VCD) of treated producer cells"}, "[2]": {"test_system": "1919 HiBit reporter cell line", "assay": "HiBit luciferase reporter assay of EV production, agent supplemented into media", "type": "cell-based"}, "human adipose MSC cells": {"test_system": "human adipose MSC cells", "assay": "relative EV yield by AEX UHPLC peak areas of clarified conditioned media", "type": "cell-based", "conditions": "6 nM simvastatin, 4 days, serum free media", "experimental": "When cultures reached approximately 50% confluence, the media was removed and replaced with the identical growth media (control) or the growth media supplemented with […] simvastatin (sim treated). The cultures were incubated for an additional 4 days at which point the conditioned media was collected and the cell debris removed by centrifugation. The clarified condition media was then analyzed by anion exchange (AEX) ultra high-performance liquid chromatography (UHPLC), and the relative amount of extracellular vesicles in each sample was estimated by comparing peak areas. Table 11 quantifies the results, showing a 2.6 fold increase in EV production by adipose MSC cells treated with 6 nM simvastatin."}, "CHO-S cells": {"test_system": "CHO-S cells", "assay": "EV yield in total particles from CHO cells", "type": "cell-based, Chinese Hamster", "experimental": "Table 10 quantifies the results. A similar 5.6-fold increase relative to untreated controls was also observed in CHO-S cells six days after being treated with 6 nM simvastatin."}, "[3]": {"test_system": "HEK producer cell line producing Protein X EVs (PrX)", "assay": "EV yield in total particles, PrX producer cells", "type": "cell-based", "experimental": "(§1) The cells lines were treated with simvastatin (5 nM and 10 nM) for 10 days prior to EV purification."}, "[4]": {"test_system": "HEK producer cell line producing IL-12 EVs (exoIL-12)", "assay": "EV yield in total particles, exoIL-12 producer cells", "type": "cell-based", "experimental": "as §1"}, "[5]": {"test_system": "primary murine polymorphonuclear neutrophils, RAW264.7 monocytic cells, and 4T1 murine mammary cancer cells", "conditions": "Baek et al., Endocrinology 2021; cited from earlier work"}, "HiBit reporter cell line [6]": {"test_system": "HiBit reporter cell line", "conditions": "for Day 4 VCD / Day 4 Viability: 4 day; for D6 VCD / Day 6 Viability: 6 day"}}, "note": "Read-outs that look alike come from different tables or passages of the source."}
{"smiles": "CCC(C)(C)C(=O)O[C@H]1C[C@@H](C)C=C2C=C[C@H](C)[C@H](CC[C@@H]3C[C@@H](O)CC(=O)O3)[C@H]21", "note": "[Simvastatin, simvastatin]", "values": [{"measurement": "D6 VCD", "setting": "HiBit reporter cell line [1]; 2 nM simvastatin", "result": "17.00 e6/ml"}, {"measurement": "Day 4 VCD", "setting": "HiBit reporter cell line [1]; 2 nM simvastatin", "result": "10.41 e6/ml"}, {"measurement": "Day 4 Viability", "setting": "HiBit reporter cell line [1]; 2 nM simvastatin", "result": 94.9, "unit": "%"}, {"measurement": "Day 6 Viability", "setting": "HiBit reporter cell line [1]; 2 nM simvastatin", "result": 95.5, "unit": "%"}, {"measurement": "D6 VCD", "setting": "HiBit reporter cell line [1]; 5 nM simvastatin", "result": "15.5 e6/ml"}, {"measurement": "Day 4 VCD", "setting": "HiBit reporter cell line [1]; 5 nM simvastatin", "result": "9.16 e6/ml"}, {"measurement": "Day 4 Viability", "setting": "HiBit reporter cell line [1]; 5 nM simvastatin", "result": 92.7, "unit": "%"}, {"measurement": "Day 6 Viability", "setting": "HiBit reporter cell line [1]; 5 nM simvastatin", "result": 95.7, "unit": "%"}, {"measurement": "tolerability of producer cells", "setting": "HiBit reporter cell line [1]; 10 nM dose, batch refeed in shake flask, duration of the study", "result": "well tolerated"}, {"measurement": "D6 VCD", "setting": "HiBit reporter cell line [1]; 10 nM simvastatin", "result": "12.41 e6/ml"}, {"measurement": "Day 4 VCD", "setting": "HiBit reporter cell line [1]; 10 nM simvastatin", "result": "8.66 e6/ml"}, {"measurement": "Day 4 Viability", "setting": "HiBit reporter cell line [1]; 10 nM simvastatin", "result": 88.8, "unit": "%"}, {"measurement": "Day 6 Viability", "setting": "HiBit reporter cell line [1]; 10 nM simvastatin", "result": 93.6, "unit": "%"}, {"measurement": "viable cell density (VCD)", "setting": "HiBit reporter cell line [1]; simvastatin alone in HiBit cultures, Example 7", "result": "characteristic decrease"}, {"measurement": "Luciferase relative to control", "setting": "[2]; 10 nM simvastatin, Day 2", "result": 2.3}, {"measurement": "Luciferase relative to control", "setting": "[2]; 10 nM simvastatin, Day 3", "result": 4.7}, {"measurement": "Luciferase relative to control", "setting": "[2]; 10 nM simvastatin, Day 6", "result": 9.6}, {"measurement": "Luciferase relative to control", "setting": "[2]; 50 nM simvastatin, Day 2", "result": 5.3}, {"measurement": "IC50", "setting": "[2]; simvastatin supplemented into the media, inhibited quantity not stated", "result": "10 to 20", "unit": "nM"}, {"measurement": "FOLD INCREASE PER CELL EV PRODUCTION", "setting": "human adipose MSC cells", "result": 2.6, "unit": "X"}, {"measurement": "FOLD INCREASE PER CELL EV PRODUCTION", "setting": "human adipose MSC cells; listed as Sim", "result": 2.6, "unit": "X"}, {"measurement": "increase in EV yield relative to untreated controls", "setting": "CHO-S cells; CHO-S cells six days after being treated with 6 nM simvastatin", "result": 5.6, "unit": "fold"}, {"measurement": "Relationship to Control", "setting": "CHO-S cells; CHO-S, 10 nM simvastatin", "result": 5.6, "unit": "X"}, {"measurement": "Total Particles", "setting": "CHO-S cells; CHO-S, 10 nM simvastatin", "result": "2.22E+11"}, {"measurement": "Relationship to Control", "setting": "[3]; 5 nM simvastatin for 10 days", "result": 4, "unit": "x"}, {"measurement": "Total Particles", "setting": "[3]; 5 nM simvastatin for 10 days prior to EV purification", "result": "4.5E+11"}, {"measurement": "Relationship to Control", "setting": "[4]; exoIL-12, 5 nM simvastatin for 10 days", "result": 3.5, "unit": "x^"}, {"measurement": "Total Particles", "setting": "[4]; exoIL-12, 5 nM simvastatin for 10 days prior to EV purification", "result": "1.79E+11"}, {"measurement": "Relationship to Control", "setting": "[4]; exoIL-12, 10 nM simvastatin for 10 days", "result": 7, "unit": "x"}, {"measurement": "Total Particles", "setting": "[4]; exoIL-12, 10 nM simvastatin for 10 days prior to EV purification", "result": "3.50E+11"}]}
{"smiles": "Cc1nc[nH]c1CN1CCN(C(=O)N[C@@H](CC(C)C)C(=O)O)[C@@H](Cc2ccccc2)C1=O", "note": "[GGTI-2418]", "values": [{"measurement": "effect on cell density (VCD)", "setting": "HiBit reporter cell line [1]; days 2, 4, 6, and 8", "result": "no effect"}, {"measurement": "effect on exosome production (RLU)", "setting": "[2]; days 2, 4, 6, and 8", "result": "no effect"}]}
{"smiles": "C[C@@H](CO)CCC[C@@H](C)[C@H]1CC[C@H]2[C@@H]3CC=C4C[C@@H](O)CC[C@]4(C)[C@H]3CC[C@]12C", "note": "[27-hydroxycholesterol]", "values": [{"measurement": "exosome production", "setting": "[5]", "result": "increased exosome production"}]}
{"smiles": "CC(C)CCC[C@@H](C)[C@H]1CC[C@H]2[C@@H]3CC=C4C[C@@H](O)CC[C@]4(C)[C@H]3CC[C@]12C", "note": "[synthetic cholesterol, cholesterol]", "values": [{"measurement": "impact on exosome production", "setting": "[2]; elevated cholesterol alone", "result": "no impact"}, {"measurement": "simvastatin induction of EV production", "setting": "[2]; supplemental cholesterol together with simvastatin, still higher than control cultures lacking statin", "result": "largely attenuated"}, {"measurement": "impact on cell culture VCD", "setting": "HiBit reporter cell line [6]", "result": "no impact"}]}
{"smiles": "CN(C)C(=O)N[C@H]1CC[C@H](CCN2CCN(c3cccc(Cl)c3Cl)CC2)CC1", "note": "[Cariprazine, cariprazine]", "values": [{"measurement": "Luciferase relative to control", "setting": "[2]; 2 μM cariprazine, Day 2", "result": 0.8}, {"measurement": "Luciferase relative to control", "setting": "[2]; 2 μM cariprazine, Day 3", "result": 1.8}, {"measurement": "Luciferase relative to control", "setting": "[2]; 5 μM cariprazine, Day 2", "result": 1}, {"measurement": "Luciferase relative to control", "setting": "[2]; 5 μM cariprazine, Day 3", "result": 2.6}, {"measurement": "Luciferase relative to control", "setting": "[2]; 10 μM cariprazine, Day 2", "result": 0.8}, {"measurement": "Luciferase relative to control", "setting": "[2]; 10 μM cariprazine, Day 3", "result": 2.4}, {"measurement": "Day 4 VCD", "setting": "HiBit reporter cell line [6]", "result": "5.14 e6/ml"}, {"measurement": "Day 4 VCD", "setting": "HiBit reporter cell line [6]; 5 μM", "result": "7.73 e6/ml"}, {"measurement": "Day 4 Viability", "setting": "HiBit reporter cell line [6]; 5 μM", "result": 95.6, "unit": "%"}, {"measurement": "Day 4 Viability", "setting": "HiBit reporter cell line [6]; 10 μM", "result": 89.7, "unit": "%"}, {"measurement": "D6 VCD", "setting": "HiBit reporter cell line [6]; 5 μM", "result": "11.97 e6/ml"}, {"measurement": "Day 6 Viability", "setting": "HiBit reporter cell line [6]; 5 μM", "result": 92.4, "unit": "%"}, {"measurement": "D6 VCD", "setting": "HiBit reporter cell line [6]; 10 μM", "result": "5.13 e6/ml"}, {"measurement": "Day 6 Viability", "setting": "HiBit reporter cell line [6]; 10 μM", "result": 81.0, "unit": "%"}]}
{"smiles": "CC(C)c1nc(N(C)S(C)(=O)=O)nc(-c2ccc(F)cc2)c1/C=C/[C@@H](O)C[C@@H](O)CC(=O)O", "note": "[rosuvastatin]", "values": [{"measurement": "EV expression (luminescence/cell)", "setting": "[2]; 10, 25, 50, 75, 100 nM, four days post induction", "result": "dose-dependent increase"}]}
